# Measured values published in patent US20160039904A1, “STABILIZED SINGLE HUMAN CD4 DOMAINS AND FUSION PROTEINS” (priority 2013, published 2016).
# Tests used:
# Type in all cases: cell-based
# HIV-1 CH64 = conditions: Table 7; CH64, clade BC, R5
# HIV-1 CH70 = conditions: Table 7; CH70, clade BC, R5
# HIV-1 CH110 = conditions: Table 7; CH110, clade BC, R5
# HIV-1 CH117 = conditions: Table 7; CH117, clade BC, R5
# HIV-1 CH119 = conditions: Table 7; CH119, clade BC, R5
# HIV-1 CH120 = conditions: Table 7; CH120, clade BC, R5
# HIV-1 CNE7 = conditions: Table 7; CNE7, clade BC, R5
# HIV-1 CNE15 = conditions: Table 7; CNE15, clade BC, R5
# HIV-1 CNE16 = conditions: Table 7; CNE16, clade BC, R5
# HIV-1 CNE20 = conditions: Table 7; CNE20, clade BC, R5
# HIV-1 CNE46 = conditions: Table 7; CNE46, clade BC, R5
# HIV-1 CNE47 = conditions: Table 7; CNE47, clade BC, R5
# HIV-1 CNE49 = conditions: Table 7; CNE49, clade BC, R5
# HIV-1 CNE53 = conditions: Table 7; CNE53, clade BC, R5
# HIV-1 CNE68 = conditions: Table 7; CNE68, clade BC, R5
# HIV-1 CNE1 = conditions: Table 7; CNE1, clade B′, X4
# HIV-1 CNE4 = conditions: Table 7; CNE4, clade B′, R5
# HIV-1 CNE9 = conditions: Table 7; CNE9, clade B′, R5
# HIV-1 CNE11 = conditions: Table 7; CNE11, clade B′, R5
# HIV-1 CNE14 = conditions: Table 7; CNE14, clade B′, R5
# HIV-1 CNE57 = conditions: Table 7; CNE57, clade B′, X4
# HIV-1 CNE64 = conditions: Table 7; CNE64, clade B′, R5
# HIV-1 CNE17 = conditions: Table 7; CNE17, clade C, R5
# HIV-1 CNE58 = conditions: Table 7; CNE58, clade C, R5
# HIV-1 CNE65 = conditions: Table 7; CNE65, clade C, R5
# HIV-1 CNE66 = conditions: Table 7; CNE66, clade C, R5
# HIV-1 CNE3 = conditions: Table 7; CNE3, clade AE, R5
# HIV-1 CNE55 = conditions: Table 7; CNE55, clade AE, R5
# HIV-1 CNE59 = conditions: Table 7; CNE59, clade AE, R5
# HIV-1 AE20 = conditions: Table 7; AE20, clade AE, R5
# HIV-1 AE03 = conditions: Table 7; AE03, clade AE, R5
# HIV-1 YN192.31 = conditions: Table 7; YN192.31, clade AE, R5
# HIV-1 GX2010.36 = conditions: Table 7; GX2010.36, clade AE, R5
substance,measurement,setting,value
enfuvirtide,IC50,HIV-1 CH64,3.1 nM
same,IC90,HIV-1 CH64,25 nM
same,IC50,HIV-1 CH70,65 nM
same,IC90,HIV-1 CH70,> 750 nM
same,IC50,HIV-1 CH110,4.3 nM
same,IC90,HIV-1 CH110,262 nM
same,IC50,HIV-1 CH117,2.3 nM
same,IC90,HIV-1 CH117,34 nM
same,IC50,HIV-1 CH119,2 nM
same,IC90,HIV-1 CH119,25 nM
same,IC50,HIV-1 CH120,11 nM
same,IC90,HIV-1 CH120,443 nM
same,IC50,HIV-1 CNE7,4.3 nM
same,IC90,HIV-1 CNE7,58 nM
same,IC50,HIV-1 CNE15,14 nM
same,IC90,HIV-1 CNE15,157 nM
same,IC50,HIV-1 CNE16,14 nM
same,IC90,HIV-1 CNE16,169 nM
same,IC50,HIV-1 CNE20,5.5 nM
same,IC90,HIV-1 CNE20,41 nM
same,IC50,HIV-1 CNE46,26 nM
same,IC90,HIV-1 CNE46,743 nM
same,IC50,HIV-1 CNE47,4.9 nM
same,IC90,HIV-1 CNE47,42 nM
same,IC50,HIV-1 CNE49,9.1 nM
same,IC90,HIV-1 CNE49,236 nM
same,IC50,HIV-1 CNE53,51 nM
same,IC90,HIV-1 CNE53,721 nM
same,IC50,HIV-1 CNE68,32 nM
same,IC90,HIV-1 CNE68,321 nM
same,IC50,HIV-1 CNE1,1.6 nM
same,IC90,HIV-1 CNE1,17 nM
same,IC50,HIV-1 CNE4,1.7 nM
same,IC90,HIV-1 CNE4,14 nM
same,IC50,HIV-1 CNE9,1.7 nM
same,IC90,HIV-1 CNE9,14 nM
same,IC50,HIV-1 CNE11,3.5 nM
same,IC90,HIV-1 CNE11,36 nM
same,IC50,HIV-1 CNE14,9.7 nM
same,IC90,HIV-1 CNE14,305 nM
same,IC50,HIV-1 CNE57,2.5 nM
same,IC90,HIV-1 CNE57,24 nM
same,IC50,HIV-1 CNE64,1.9 nM
same,IC90,HIV-1 CNE64,16 nM
same,IC50,HIV-1 CNE17,42 nM
same,IC90,HIV-1 CNE17,676 nM
same,IC50,HIV-1 CNE58,54 nM
same,IC90,HIV-1 CNE58,745 nM
same,IC50,HIV-1 CNE65,5.9 nM
same,IC90,HIV-1 CNE65,78 nM
same,IC50,HIV-1 CNE66,129 nM
same,IC90,HIV-1 CNE66,729 nM
same,IC50,HIV-1 CNE3,5.6 nM
same,IC90,HIV-1 CNE3,38 nM
same,IC50,HIV-1 CNE55,26 nM
same,IC90,HIV-1 CNE55,549 nM
same,IC50,HIV-1 CNE59,1.4 nM
same,IC90,HIV-1 CNE59,17 nM
same,IC50,HIV-1 AE20,212 nM
same,IC90,HIV-1 AE20,572 nM
same,IC50,HIV-1 AE03,304 nM
same,IC90,HIV-1 AE03,510 nM
same,IC50,HIV-1 YN192.31,42 nM
same,IC90,HIV-1 YN192.31,336 nM
same,IC50,HIV-1 GX2010.36,255 nM
same,IC90,HIV-1 GX2010.36,> 750 nM
4Dm2m: bispecific multivalent fusion protein of mD1.22 and m36.4; two SEQ ID NO: 20 and two SEQ ID NO: 21 chains,IC90,HIV-1 CH64,1.6 nM
same,IC50,HIV-1 CH70,0.11 nM
same,IC90,HIV-1 CH70,1.2 nM
same,IC50,HIV-1 CH110,0.11 nM
same,IC90,HIV-1 CH110,0.83 nM
same,IC50,HIV-1 CH117,0.33 nM
same,IC90,HIV-1 CH119,3.4 nM
same,IC50,HIV-1 CH120,0.33 nM
same,IC90,HIV-1 CH120,6.6 nM
same,IC50,HIV-1 CNE7,0.18 nM
same,IC90,HIV-1 CNE7,1.8 nM
same,IC50,HIV-1 CNE15,0.29 nM
same,IC90,HIV-1 CNE15,2.6 nM
same,IC50,HIV-1 CNE16,0.08 nM
same,IC90,HIV-1 CNE16,1.2 nM
same,IC50,HIV-1 CNE20,0.05 nM
same,IC90,HIV-1 CNE20,5.3 nM
same,IC50,HIV-1 CNE46,0.27 nM
same,IC90,HIV-1 CNE46,9.4 nM
same,IC50,HIV-1 CNE47,0.11 nM
same,IC90,HIV-1 CNE47,2.8 nM
same,IC50,HIV-1 CNE49,0.05 nM
same,IC90,HIV-1 CNE49,0.56 nM
same,IC50,HIV-1 CNE53,0.24 nM
same,IC90,HIV-1 CNE53,5.5 nM
same,IC50,HIV-1 CNE68,0.11 nM
same,IC90,HIV-1 CNE68,0.78 nM
same,IC50,HIV-1 CNE1,0.11 nM
same,IC90,HIV-1 CNE1,0.61 nM
same,IC50,HIV-1 CNE4,0.11 nM
same,IC90,HIV-1 CNE4,2.4 nM
same,IC50,HIV-1 CNE9,0.22 nM
same,IC50,HIV-1 CNE11,0.33 nM
same,IC90,HIV-1 CNE11,2.6 nM
same,IC90,HIV-1 CNE14,2.4 nM
same,IC90,HIV-1 CNE57,19 nM
same,IC50,HIV-1 CNE64,0.56 nM
same,IC50,HIV-1 CNE17,0.11 nM
same,IC90,HIV-1 CNE17,2.4 nM
same,IC90,HIV-1 CNE58,> 28 nM
same,IC50,HIV-1 CNE65,0.28 nM
same,IC90,HIV-1 CNE65,3.3 nM
same,IC90,HIV-1 CNE66,7.7 nM
same,IC50,HIV-1 CNE3,0.39 nM
same,IC90,HIV-1 CNE3,2.8 nM
same,IC50,HIV-1 CNE55,0.45 nM
same,IC90,HIV-1 CNE55,10 nM
same,IC90,HIV-1 CNE59,2.7 nM
same,IC50,HIV-1 AE20,0.72 nM
same,IC50,HIV-1 AE03,0.67 nM
same,IC50,HIV-1 YN192.31,0.89 nM
same,IC50,HIV-1 GX2010.36,0.11 nM
